A short description of data set [1]: In vitro intrinsic clearance. Conditions: human liver microsomes, 1 μM. Type of data set: in vitro ADME. As to the method:
Example G. In Vitro Intrinsic Clearance Protocol
For in vitro metabolic stability experiments, test compounds were incubated with human liver microsomes at 37° C. The incubation mixture contained test compounds (1 μM), NADPH (2 mM), and human liver microsomes (0.5 mg protein/mL) in 100 mM phosphate buffer (pH 7.4). The mixture was pre-incubated for 2 min at 37° C. before the addition of NADPH. Reactions were commenced upon the addition of NADPH and quenched with ice-cold methanol at 0, 10, 20, and 30 min. Terminated incubation mixtures were analyzed using LC-MS/MS system. The analytical system consisted of a Shimadzu LC-30AD binary pump system and SIL-30AC autosampler (Shimadzu Scientific Instruments, Columbia, MD) coupled with a Sciex Triple Quad 6500+ mass spectrometer from Applied Biosystems (Foster City, CA). […] Mobile phase A consisted of 0.1% formic acid in water, and mobile phase B consisted of 0.1% formic acid in acetonitrile. The total LC-MS/MS runtime was 2.75 minutes with a flow rate of 0.75 mL/min. Peak area integrations and peak area ratio calculations were performed using Analyst software (version 1.6.3) from Applied Biosystems.
The in vitro intrinsic clearance, CLint, in vitro, was calculated from the t1/2 of test compound disappearance as CLint, in vitro=(0.693/t1/2)×(1/Cprotein), where Cprotein is the protein concentration during the incubation, and t1/2 was determined by the slope (k) of the log-linear regression analysis of the concentration versus time profiles; thus, t1/2=ln 2/k. The CLint, in vitro values were scaled to the in vivo values for human by using physiologically based scaling factors, hepatic microsomal protein concentrations (45 mg protein/g liver), and liver weights (21 g/kg body weight). The equation CLint=CLint, in vitro×(mg protein/g liver weight)×(g liver weight/kg body weight) was used. The in vivo hepatic clearance (CLH) was then calculated by using CLint and hepatic blood flow, Q (20 mL·min^−1·kg^−1 in humans) in the well-stirred liver model disregarding all binding from CLH=(Q×CLint)/(Q+CLint). The hepatic extraction ratio was calculated as CLH divided by Q.

The test system of data set [2] is STAT5 (Tyr694) phosphorylation in SET-2 cells. Nature of the data set: STAT5 (Tyr694) phosphorylation cell based assay. Conditions: Homo sapiens, pSTAT5, 2 hours, read-out: SET2 IC50. The procedure:
Example E. STAT5 (Tyr694) Phosphorylation Cell Based Assay
SET-2 cells was purchased from DSMZ (Germany). RPMI1640 medium, Fetal Bovine Serum and 384-white sold flat-bottom small volume plate were purchased from Thermo Fisher Scientific (Waltham, MA). Phospho-STAT5 (Tyr694) HTRF kit was purchased from Perkin Elmer (Waltham, MA).
SET-2 cells were cultured in RPMI media with 20% FBS at 37° C. in humidified incubator supplied with 5% CO2. On the day of assay, the cells were centrifuged to remove the culture media and resuspended with prewarmed RPMI with 10% FBS. Testing compounds were prepared by serial dilution in DMSO and 50 nL/well test compounds were transferred to the 384 white low volume cell culture plate (Greiner Bio-one) by ECHO liquid handler (Labcyte). The cells were then dispensed with Multidrop (Thermo Fisher, Waltham, MA) at 10 μL/well (7×10^6 cells/mL) with 0.5% DMSO in the final assay. After the treated cells were incubated for 2 hours at 37° C./5% CO2 incubator, 4 μL/well supplemented lysis buffer (100× blocking buffer diluted 25 fold in 4× lysis buffer, Perkin Elmer) were added and incubated at room temperature for 90 min on orbital shaker at 600 rpm. Phospho-STAT5 Cryptate antibody and Phospho-STAT5 d2 antibody (1:1 vol/vol) were premixed and diluted 20 fold with in the detection buffer (Perkin Elmer). 4 μL of the premixed antibody solution were added to each well followed with 24 hours incubation at room temperature on orbital shaker at 600 rpm. The product activity was determined by measuring the fluorescence at 620 nm and 665 nm on Pherastar microplate reader (BMG Labtech). A ratio is calculated (665/620) for each well. Wells with DMSO only served as the positive controls and wells containing high concentration of control compound were used as negative controls. IC50 determination was performed by fitting the curve of percent control activity versus the log of the compound concentration using the GraphPad Prism 7.0 software.

The target in data set [3] is TRKA (Homo sapiens, UniProt P04629). Nature of the data set: TRKA enzymatic assay. Type of data set: biochemical. The note with it: 1 mM ATP. As to the method:
(§1) Example I. TRKA Enzymatic Assay
(§2) The kinase assays were carried out at 24° C. temperature in assay buffer (HEPES 50 mM, pH 7.0, NaN3 0.02%, BSA 0.01%, Orthovanadate 0.1 mM, DTT 1 mM, MgCl2 10 mM) in a final volume of 10 μL. Testing compounds were prepared by serial dilution in DMSO and transferred to the plate wells by ECHO liquid handler (Labcyte) with 0.5% DMSO in the final assay. […]. Reactions were initiated by the addition of 5 μL ATP in assay buffer. The final 10 μL kinase reaction consists of 0.58 nM TRKA, 1 mM ATP, 500 nM TK Substrate-biotin and SEB reagent 62.5 nM in assay buffer. […] After 60 minutes incubation at room temperature, the product activity was determined by measuring the fluorescence at 620 nm and 665 nm on Pherastar microplate reader (BMG Labtech). A ratio is calculated (665/620 nm) for each well. Wells with DMSO only were served as the positive controls and wells containing no ATP were used as negative controls. IC50 determination was performed by fitting the curve of percent control activity versus the log of the compound concentration using the Gene data.

The subject of data set [4] is TRKA. Nature of the data set: TRKA enzymatic assay. It is filed as biochemical. The procedure: as §1, §2

Structures are written as SMILES.

TRKA (Homo sapiens, UniProt P04629), sequence (P04629 33-796, species assumed): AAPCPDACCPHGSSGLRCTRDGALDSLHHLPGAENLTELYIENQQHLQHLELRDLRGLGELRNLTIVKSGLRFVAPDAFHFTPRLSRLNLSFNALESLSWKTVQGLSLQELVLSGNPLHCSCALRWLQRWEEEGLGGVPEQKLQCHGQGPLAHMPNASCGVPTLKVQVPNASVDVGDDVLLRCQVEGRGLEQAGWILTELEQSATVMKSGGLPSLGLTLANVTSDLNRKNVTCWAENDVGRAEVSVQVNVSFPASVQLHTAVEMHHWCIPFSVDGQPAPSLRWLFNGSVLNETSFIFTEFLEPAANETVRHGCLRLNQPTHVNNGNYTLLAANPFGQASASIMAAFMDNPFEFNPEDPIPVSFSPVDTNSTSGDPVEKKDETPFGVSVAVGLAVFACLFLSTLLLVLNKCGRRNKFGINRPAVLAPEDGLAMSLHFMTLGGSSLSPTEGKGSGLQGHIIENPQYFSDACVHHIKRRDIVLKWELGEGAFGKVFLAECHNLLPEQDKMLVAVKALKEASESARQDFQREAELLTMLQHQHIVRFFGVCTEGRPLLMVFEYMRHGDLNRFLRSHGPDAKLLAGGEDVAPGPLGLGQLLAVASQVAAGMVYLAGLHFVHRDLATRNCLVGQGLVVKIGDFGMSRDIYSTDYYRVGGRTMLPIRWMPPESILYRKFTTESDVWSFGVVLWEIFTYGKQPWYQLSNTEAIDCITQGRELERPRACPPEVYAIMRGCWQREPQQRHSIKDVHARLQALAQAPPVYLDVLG

As for `COC(=O)N[C@@H]1CC[C@@H](n2c(=O)n(C)c3cnc4[nH]c(-c5cn(C)nc5OC)c(-c5cccc(F)c5)c4c32)C1` [Example 3, Methyl ((1R,3R)-3-(8-(3-fluorophenyl)-7-(3-methoxy-1-methyl-1H-pyrazol-4-yl)-3-methyl-2-oxo-3,6-dihydroimidazo[4,5-d]pyrrolo[2,3-b]pyridin-1(2H)-yl)cyclopentyl)carbamate], the h-IntCL result in data set [1] is “‡ ‡ (h-IntCL of ≥0.7 L/h/kg to ≤1 L/h/kg)”. Besides, the IC50 (as a rule, the midpoint of a concentration-inhibition curve) in data set [2] lay in the range of 300 to 800 nM; in data set [3] it was 1250 to 2500 nM. Moreover, the “Selectivity TRKA/JH2 V617F” value in data set [4] is “**** (selectivity of >1750-fold to ≤5000-fold)”.

In the case of `COC(=O)N[C@@H]1CC[C@@H](n2c(=O)n(C)c3cnc4[nH]c(-c5cn(C)nc5OC)c(-c5ccc(F)cc5)c4c32)C1` [Example 1, Methyl ((1R,3R)-3-(8-(4-fluorophenyl)-7-(3-methoxy-1-methyl-1H-pyrazol-4-yl)-3-methyl-2-oxo-3,6-dihydroimidazo[4,5-d]pyrrolo[2,3-b]pyridin-1(2H)-yl)cyclopentyl)carbamate], the h-IntCL entry in data set [1] is recorded as “‡ ‡ (h-IntCL of ≥0.7 L/h/kg to ≤1 L/h/kg)”. Moreover, the IC50 in data set [2] is more than 800 nM; in data set [3] it was 1250 to 2500 nM. In data set [4], the “Selectivity TRKA/JH2 V617F” value is on record as “** (selectivity of >500-fold to ≤1500-fold)”.

As to `[2H]C([2H])([2H])n1ncc2cc(-c3c(-c4cn(C)nc4OC)[nH]c4ncc5c(c34)n([C@@H]3CC[C@@H](NC(=O)OC)C3)c(=O)n5C)ccc21` [Example 5, Methyl ((1R,3R)-3-(7-(3-methoxy-1-methyl-1H-pyrazol-4-yl)-3-methyl-8-(1-(methyl-d3)-1H-indazol-5-yl)-2-oxo-3,6-dihydroimidazo[4,5-d]pyrrolo[2,3-b]pyridin-1(2H)-yl)cyclopentyl)carbamate], in data set [1], the h-IntCL entry is given as “‡ (h-IntCL of <0.7 L/h/kg)”. Besides, the IC50 was not above 300 nM in data set [2] and more than 2500 nM in data set [3]. Besides, the “Selectivity TRKA/JH2 V617F” value in data set [4] is “****** (selectivity of >12500-fold)”.

As to `[2H]C([2H])([2H])n1cc(-c2[nH]c3ncc4c(c3c2-c2ccc3c(c2)COC3(C)C)n([C@@H]2CC[C@@H](NC(=O)OC)C2)c(=O)n4C)c(F)n1` [Example 11, Methyl ((1R,3R)-3-(8-(1,1-dimethyl-1,3-dihydroisobenzofuran-5-yl)-7-(3-fluoro-1-(methyl-d3)-1H-pyrazol-4-yl)-3-methyl-2-oxo-3,6-dihydroimidazo[4,5-d]pyrrolo[2,3-b]pyridin-1(2H)-yl)cyclopentyl)carbamate], the h-IntCL entry in data set [1] is reported as “‡ ‡ (h-IntCL of ≥0.7 L/h/kg to ≤1 L/h/kg)”. For the same molecule, the IC50 was not above 300 nM in data set [2] and more than 2500 nM in data set [3]. Further, the “Selectivity TRKA/JH2 V617F” value in data set [4] is listed as “****** (selectivity of >12500-fold)”.

On to `[2H]C([2H])([2H])Oc1ccc(-c2c(-c3cn(C([2H])([2H])[2H])nc3F)[nH]c3ncc4c(c23)n([C@@H]2CC[C@@H](NC(=O)OC)C2)c(=O)n4C([2H])([2H])[2H])cc1` [Example 9, Methyl ((1R,3R)-3-(7-(3-fluoro-1-(methyl-d3)-1H-pyrazol-4-yl)-8-(4-(methoxy-d3)phenyl)-3-(methyl-d3)-2-oxo-3,6-dihydroimidazo[4,5-d]pyrrolo[2,3-b]pyridin-1(2H)-yl)cyclopentyl)carbamate], for which the h-IntCL result in data set [1] is given as “‡ ‡ (h-IntCL of ≥0.7 L/h/kg to ≤1 L/h/kg)”. Moreover, the IC50 is not above 300 nM in data set [2] and 1250 to 2500 nM in data set [3]. In addition, in data set [4], the “Selectivity TRKA/JH2 V617F” value was “***** (selectivity of >5000-fold to ≤12500-fold)”.

Regarding `[2H]C([2H])([2H])n1cc(-c2[nH]c3ncc4c(c3c2-c2ccc3c(cnn3C(C)C)c2)n([C@@H]2CC[C@@H](NC(=O)OC)C2)c(=O)n4C)c(F)n1` [Example 16, Methyl ((1R,3R)-3-(7-(3-fluoro-1-(methyl-d3)-1H-pyrazol-4-yl)-8-(1-isopropyl-1H-indazol-5-yl)-3-methyl-2-oxo-3,6-dihydroimidazo[4,5-d]pyrrolo[2,3-b]pyridin-1(2H)-yl)cyclopentyl)carbamate], in data set [1], the h-IntCL entry was “‡ ‡ (h-IntCL of ≥0.7 L/h/kg to ≤1 L/h/kg)”. The IC50 was not above 300 nM in data set [2] and more than 2500 nM in data set [3]. The “Selectivity TRKA/JH2 V617F” value in data set [4] was “****** (selectivity of >12500-fold)”.

With `[2H]C([2H])([2H])n1ncc2cc(-c3c(-c4cn(C([2H])([2H])C([2H])([2H])[2H])nc4F)[nH]c4ncc5c(c34)n([C@@H]3CC[C@@H](NC(=O)OC)C3)c(=O)n5C([2H])([2H])[2H])ccc21` [Example 15, Methyl ((1R,3R)-3-(7-(1-(ethyl-d5)-3-fluoro-1H-pyrazol-4-yl)-3-(methyl-d3)-8-(1-(methyl-d3)-1H-indazol-5-yl)-2-oxo-3,6-dihydroimidazo[4,5-d]pyrrolo[2,3-b]pyridin-1(2H)-yl)cyclopentyl)carbamate], in data set [1], the h-IntCL entry is listed as “‡ ‡ (h-IntCL of ≥0.7 L/h/kg to ≤1 L/h/kg)”. In addition, the IC50 was not above 300 nM in data set [2] and 1250 to 2500 nM in data set [3]. The “Selectivity TRKA/JH2 V617F” value in data set [4] is recorded as “****** (selectivity of >12500-fold)”.

For the molecule `[2H]C([2H])([2H])n1ncc2cc(-c3c(-c4cn(C)nc4OC)[nH]c4ncc5c(c34)n(C3CCOCC3)c(=O)n5C)ccc21` [B, reference compound], the h-IntCL result in data set [1] is on record as “‡ ‡ (h-IntCL of ≥0.7 L/h/kg to ≤1 L/h/kg)”. Besides, the IC50 is more than 800 nM in data set [2] and more than 2500 nM in data set [3]. In addition, the “Selectivity TRKA/JH2 V617F” value in data set [4] is “** (selectivity of >500-fold to ≤1500-fold)”.

For `[2H]C([2H])([2H])n1cc(-c2[nH]c3ncc4c(c3c2-c2ccc3c(cnn3CC(F)F)c2)n([C@@H]2CC[C@@H](NC(=O)OC)C2)c(=O)n4C)c(F)n1` [Example 18, Methyl ((1R,3R)-3-(8-(1-(2,2-difluoroethyl)-1H-indazol-5-yl)-7-(3-fluoro-1-(methyl-d3)-1H-pyrazol-4-yl)-3-methyl-2-oxo-3,6-dihydroimidazo[4,5-d]pyrrolo[2,3-b]pyridin-1(2H)-yl)cyclopentyl)carbamate], in data set [1], the h-IntCL result is recorded as “‡ ‡ (h-IntCL of ≥0.7 L/h/kg to ≤1 L/h/kg)”. Further, the IC50 in data set [2] was not above 300 nM; in data set [3], more than 2500 nM. For the same molecule, the “Selectivity TRKA/JH2 V617F” value in data set [4] was “****** (selectivity of >12500-fold)”.
